# Experimental data as given in US10435752B2, “Use of ADCY3 for diagnosis and treatment of gastric cancer” (NATIONAL CANCER CENTER, priority 2012, dated 2019).
# Tests used:
# ADCY3 promoter = ADCY3 promoter methylation after in vitro demethylation (bisulfite sequencing); type: cell-based, human; details: KATO III cells, 10 μM, 96 hrs, FIG. 5D
# Protocol: To assay the methylation status of the ADCY3 promoter, genomic DNA was bisulfite-treated using the EZ DNA Methylation-Gold Kit (ZYMO Research, USA), and treated with methylation-specific PCR primers (Table 3) that were designed using EpiDesigner (Sequenom, USA).
# A methylation-specific high-resolution melting assay (MS-HRM) was performed using 10 ng of bisulfite-treated genomic DNA and ResoLight dye in a LightCycler 480 (Roche Applied Science) according to the manufacturer's protocol. Results were analyzed using Gene Scanning software (Roche). For bisulfite sequencing, the promoter region containing 39 CpG sites was amplified from the genomic DNA of bisulfite-treated gastric cells, cloned into the TOPO-TA vector (Invitrogen), and sequenced using the 3730xl DNA analyzer (Applied Biosystems).
# To investigate the effects of promoter demethylation on ADCY3 expression, KATO III cells were incubated for 96 hrs in a culture medium with or without 5-Aza-2′-deoxycytidine (5-Aza-dC; Sigma Aldrich, USA) at a final concentration of 10 μM, and the mRNA level of ADCY3 was measured using qRT-PCR.
# ADCY3 = ADCY3 mRNA level by qRT-PCR after demethylation; type: cell-based, human; details: KATO III cells, 10 μM, 96 hrs, relative to the negative control, FIG. 5E
# Protocol: qRT-PCR reactions were performed using a LightCycler 480 (Roche Applied Science, UK) and ABI 7500 Fast Real-Time PCR system (Applied Biosystems). Results were quantified either by using β-actin for normalization (relative quantification), or by standard curve-based absolute quantification. To investigate the effects of promoter demethylation on ADCY3 expression, KATO III cells were incubated for 96 hrs in a culture medium with or without 5-Aza-2′-deoxycytidine (5-Aza-dC; Sigma Aldrich, USA) at a final concentration of 10 μM, and the mRNA level of ADCY3 was measured using qRT-PCR.
structure (smiles),measurement,setting,value
"Nc1ncn([C@H]2C[C@H](O)[C@@H](CO)O2)c(=O)n1 [5-Aza-dC, 5-Aza-2′-deoxycytidine]",methylation of CpG sites in the ADCY3 promoter,ADCY3 promoter,demethylation of CpG sites
same,ADCY3 mRNA expression level,ADCY3,recovery of ADCY3 mRNA expression level
